Experimental data from patent US8772251B2, “Use of isothiocyanate derivatives as anti-myeloma agents” (Indena S.p.A., priority 2008, dated 2014).
Where two headings read alike, the source gives them in different places.

Columns and labels:
[1] = tested on: human myeloma tumor cell lines s.c. transplanted; experiment: Antitumor activity in vivo in SCID mice bearing s.c. transplanted human myeloma
Description: In the table 3 is reported the antitumor activity of the GMG-ITC administered in vivo in SCID mice bearing human myeloma tumor cell lines s.c. transplanted.

[2] = tested on: H460 human lung tumor cell line; experiment: Sensitivity of H460 cells to glucomoringin with or without myrosinase (cell growth relative to control); assay type: cell-based; settings: GMG 100 μM, no MYR
MCF7 NEO = experiment: Cytotoxic activity, cell count (24 h); assay type: cell-based; settings: Homo sapiens, read-out: Cell count (24 h) IC50
Description: (§1) Cytotoxic activity of the Moringa derived isothiocyanate (GMG-ITC) on a panel of human tumor cell lines.

H460 wt = experiment: Cytotoxic activity, cell count (24 h); assay type: cell-based; settings: Homo sapiens, read-out: Cell count (24 h) IC50
Description: as §1

MCF7 π = experiment: Cytotoxic activity, cell count (24 h); assay type: cell-based; settings: Homo sapiens, read-out: Cell count (24 h) IC50
Description: as §1

H460 S5 = experiment: Cytotoxic activity, cell count (24 h); assay type: cell-based; settings: Homo sapiens, read-out: Cell count (24 h) IC50
Description: as §1

RPMI-8226 = experiment: Cytotoxic activity, cell count (24 h); assay type: cell-based; settings: Homo sapiens, read-out: Cell count (24 h) IC50
Description: as §1

HCT116 p53+/+ = experiment: Cytotoxic activity, cell count (24 h); assay type: cell-based; settings: Homo sapiens, read-out: Cell count (24 h) IC50
Description: as §1

HCT116 p53−/− = experiment: Cytotoxic activity, cell count (24 h); assay type: cell-based; settings: Homo sapiens, read-out: Cell count (24 h) IC50
Description: as §1

A2780 = experiment: Cytotoxic activity, cell count (24 h); assay type: cell-based
Description: as §1

HL60 = experiment: Cytotoxic activity, cell count (24 h); assay type: cell-based; settings: Homo sapiens, read-out: Cell count (24 h) IC50
Description: as §1

[3] = tested on: human ovarian carcinoma A2780; experiment: Antitumor activity in vivo against human ovarian carcinoma A2780

C[C@@H]1O[C@@H](Oc2ccc(C/C(=N/OS(=O)(=O)O)S[C@@H]3O[C@H](CO)[C@@H](O)[C@H](O)[C@H]3O)cc2)[C@H](O)[C@H](O)[C@H]1O [GMG, glucomoringin]
TWI % ([1]; p.o. q5dx2, 400 mg/kg/inj.): 62%
% of cells growth relative to control ([2]; 24 h recovery): 100%
% of cells growth relative to control ([2]; 24 h treatment): 98%
% of cells growth relative to control ([2]; 48 h recovery): 100%
% of cells growth relative to control ([2]; time 0): 100%

CC1OC(Oc2ccc(CN=C=S)cc2)C(O)C(O)C1O (centres unmarked) [GMG-ITC]
IC50 (MCF7 NEO; MCF7, 24 h): 20 ± 4.4 µM
IC50 (H460 wt; NCI-H460, 24 h): 29 ± 0.8 µM
IC50 (MCF7 π; MCF7, 24 h): 21 ± 5.7 µM
IC50 (H460 S5; NCI-H460, 24 h): 18 ± 6.7 µM
IC50 (RPMI-8226; RPMI-8226, 24 h): 6 ± 1 µM
IC50 (HCT116 p53+/+; HCT-116, 24 h): 12 ± 0.3 µM
IC50 (HCT116 p53−/−; HCT-116, 24 h): 13 ± 0.25 µM
IC50 (A2780; Homo sapiens, A2780, 24 h, read-out: Cell count (24 h) IC50): 15 ± 3 µM
IC50 (HL60; HL-60, 24 h): 15 ± 1 µM
TWI % ([1]; i.p. q5dx2w, 20 mg/kg/inj.): 70%
antitumor activity [3]: low
TWI % ([3]; i.p. q5dx2w, 20 mg/kg/inj.): 46%

C[S+]([O-])CCCCN=C=S (centres unmarked) [GRA, sulphorafane, reference compound]
IC50 (MCF7 NEO; MCF7 NEO, 24 h): 26 ± 4 µM
IC50 (H460 wt; NCI-H460, H460 wt, 24 h): 29 ± 0.5 µM
IC50 (MCF7 π; MCF7 π, 24 h): 27 ± 4 µM
IC50 (H460 S5; NCI-H460, H460 S5, 24 h): 19 ± 1 µM
IC50 (RPMI-8226; RPMI-8226 (myeloma), 24 h): 8 ± 0.2 µM
IC50 (HCT116 p53+/+; HCT-116, HCT116 p53+/+, 24 h): 17 ± 2.3 µM
IC50 (HCT116 p53−/−; HCT-116, HCT116 p53−/−, 24 h): 18 ± 5.3 µM
IC50 (A2780; Homo sapiens, A2780, 24 h; read-out: Cell count (24 h) IC50): 18 ± 1 µM
IC50 (HL60; HL-60, HL60, 24 h): 16 ± 1 µM
